Laboratory results: US11422132B2, “Peptides and uses thereof for diagnosing and treating myasthenia gravis” (The Regents of the University of California, priority 2016, dated 2022)
Entries after “also recorded” stand apart in the source; their conditions may differ. Where no end group is shown, it is not given here.

Experiments:
mAb 198 [1] = experiment: Western blot of peptide-IChBD fusion proteins probed with mAb 198; format: binding, rat; conditions: for mAb 198 binding, result in words: Western blot; for mAb 198 binding compared to its binding to the human 39MIR: human 39MIR mutants, relative to human 39MIR
Description: (§1) Chitin beads adsorbed with peptide-IChBD fusion proteins were run on an SDS-PAGE gel and transferred to a nitrocellulose membrane and assayed with the four mAbs.
(§2) Chitin beads adsorbed with peptide-IChBD fusion proteins were run on an SDS-PAGE gel and transferred to a nitrocellulose membrane and assayed with the five mAbs.
The Torpedo (SEQ ID NO:9) and human (SEQ ID NO:8) 39MIRs were made by joining the α(1-12), α(65-79), and α(110-115) segments of their respective a subunits with GS linkers. These two MIR mimics were expressed in E. coli as fusion proteins with an IChBD tag to permit peptide collection on chitin beads. These two peptides differ from each other by eight amino acids (FIG. 2). Both mimics were probed with mAb 198. mAb 198, which was derived from rats that had been immunized with human muscle AChR, is a MIR-directed mAb that binds mammalian as well as Torpedo MIR (13,21). It was also able to passively transfer EAMG to rats and binds to both native assembled AChR and to α-subunit fragments in Western blots (22,23). mAb 198 binds to the Torpedo and human MIR peptide mimics in Western blots (FIG. 3). However, mAb 198 binds to the Torpedo mimic about 50 times more strongly than to the human MIR mimic (FIG. 3).
(§3) To explore the effects of individual amino acid substitutions between the Torpedo and the human AChR MIR mimics, eight peptides were prepared, each with an amino acid substituted from the human sequence into the Torpedo sequence. The single amino acid substitutions in the Torpedo MIR were: N10K (SEQ ID NO:11), L12F (SEQ ID NO:12), R66K (SEQ ID NO:13), A70D (SEQ ID NO:14), I75V (SEQ ID NO:15), R79H (SEQ ID NO:16), D111Q (SEQ ID NO:17), and K115H (SEQ ID NO:18).

mAb 132A [2] = experiment: Western blot of peptide-IChBD fusion proteins probed with mAb 132A; format: binding, rat; design: key to mAb 132A, fold-change in binding relative to Torpedo 39MIR: ‘—’ denotes no binding; conditions: for mAb 132A binding compared to the Torpedo 39 MIR: human 39MIR triple and quadruple mutants, FIG. 7
mAb 132A [3] = experiment: as above; format: binding, rat; conditions: for mAb 132A binding, result in words: Western blot
Method: as §1, §2, §3

mAb 35 [4] = experiment: Western blot of peptide-IChBD fusion proteins probed with mAb 35; format: binding, rat; conditions: for mAb 35 binding, result in words: Western blot
Method: as §1, §2, §3

[5] = tested on: antibodies in human MG serum samples; experiment: Dot blot of His-tagged peptides against human MG serum samples; format: binding
Description: Sample were obtained from either normal subjects (i.e., without a diagnosis of myasthenia gravis (MG)) or subjects diagnosed with MG. Samples were contacted with the Torpedo 39MIR peptide (SEQ ID NO:9), the human 39MIR peptide (SEQ ID NO:8), the K10N/V75I/[…] human 39MIR triple mutant (SEQ ID NO:26), or the K10N/D70A/V75I/Q111D human 39MIR quadruple mutant (SEQ ID NO:27).
His-tagged variants of the Torpedo 39MIR, human 39MIR, […] triple mutant, and K10N/D70A/V75I/Q111D quadruple mutant peptides were expressed and probed for binding to antibodies in human MG serum samples. The peptides were dot-blotted onto a membrane and probed for binding to antibodies in our human MG serum library. […] None of the His-tagged peptides bound any antibodies in normal human serum samples (FIG. 11). Although the triple mutant peptide (SEQ ID NO:26) bound better overall to mAb 35, mAb 132A, and mAb 198, the quadruple mutant peptide (SEQ ID NO:27) was better for binding antibodies in MG sera.

mAb 35 [6] = experiment: Western blot of peptide-IChBD fusion proteins probed with mAb 35; format: binding, rat; design: key to mAb 35, fold-change in binding relative to Torpedo 39MIR: ‘—’ denotes no binding; conditions: for mAb 35 binding compared to the Torpedo 39 MIR: human 39MIR triple and quadruple mutants, FIG. 7
mAb 132A [7] = conditions: IChBD fusion; reference 14; read-out: Kd of complex with mAb 132A; cited from earlier work
mAb 334 = experiment: Western blot of peptide-IChBD fusion proteins probed with mAb 334; format: binding, rat; conditions: Table 1, Western blot of FIG. 5, Torpedo 39MIR single mutants
Method: as §2, §3

[8] = tested on: MIR directed Abs in EAMG sera; conditions: reference 14; cited from earlier work
mAb 132A [9] = experiment: Western blot of peptide-Fc conjugates with mAb 132A; format: binding, rat; conditions: Western blot FIG. 13
Description: (§4) A conjugate has been engineered (FIG. 12B) that fuses the chimeric Torpedo-human peptide (SEQ ID NO:27) to an antibody Fc domain.

mAb 198 [10] = experiment: Western blot of peptide-Fc conjugates with mAb 198; format: binding, rat; conditions: Western blot FIG. 13
Description: as §4

[11] = Table 2, Western blot of FIG. 7, human 39MIR multiple mutants
[12] = Table 3, single-substitution human 39MIR mutants
[13] = Table 1, Western blot of FIG. 5, Torpedo 39MIR single mutants

Row | Substance | mAb 198, fold-change in binding relative to Torpedo 39MIR (mAb 198 [1]; [11]) [fold-change] | mAb 198 binding, result in words (mAb 198 [1]) | mAb 132A, fold-change in binding relative to Torpedo 39MIR (mAb 132A [2]; [11]) | mAb 132A binding, result in words (mAb 132A [3]) | mAb 35 binding, result in words (mAb 35 [4]) | binding to antibodies in human MG serum samples ([5]; FIG. 11) | mAb 35, fold-change in binding relative to Torpedo 39MIR (mAb 35 [6]; [11]) | further results
1 | SEHETRLVAKLFGGGSLKWNPDDYGGVKKIHGSLQYTGH (synthetic main immunogenic region (MIR) peptide) [Human 39MIR] | 0.09 | binds; also recorded: recognized; also recorded: able to bind | — | does not bind; also recorded: not recognized; also recorded: did not bind | does not bind; also recorded: not recognized; also recorded: did not bind | did not bind any antibodies | — | mAb 198, fold-change in binding relative to Torpedo 39MIR (mAb 198 [1]; [12]): 0.02 fold-change; mAb 132A, fold-change in binding relative to Torpedo 39MIR (mAb 132A [2]; [12]): —; mAb 35, fold-change in binding relative to Torpedo 39MIR (mAb 35 [6]; [12]): —
2 | SEHETRLVANLFGGGSLKWNPDDYGGIKKIHGSLDYTGH (synthetic main immunogenic region (MIR) peptide) [K10N/V75I/Q111D, Human 39MIR triple mutant (K10N/V75I/Q111D)] | 2.52 | improved binding | 2.46 fold-change |  | improved binding | only bound antibodies in one MG serum sample | 2.97 fold-change | mAb 198 binding compared to its binding to the human 39MIR (mAb 198 [1]): 28 ×; mAb 198 binding compared to the Torpedo 39 MIR (mAb 198 [1]; human 39MIR triple mutant, FIG. 7): 2.52 ×; mAb 132A binding compared to the Torpedo 39 MIR (mAb 132A [2]): 2.46 ×; binding to antibodies in human MG serum samples ([5]; FIG. 11, listed as K10N/N75I/Q111D): bound antibodies in the human sera; mAb 35 binding compared to the Torpedo 39 MIR (mAb 35 [6]): 2.97 ×
3 | SEHETRLVANLFGGGSLKWNPADYGGIKKIHGSLDYTGH (synthetic main immunogenic region (MIR) peptide) [K10N/D70A/V75I/Q111D, Human 39MIR quadruple mutant (K10N/D70A/V75I/Q111D)] | 0.99 |  | 0.99 fold-change |  |  | bound antibodies in the human sera | 1.70 fold-change | mAb 198 binding compared to its binding to the human 39MIR (mAb 198 [1]): 11 ×; mAb 132A binding compared to the Torpedo 39 MIR (mAb 132A [2]): 0.99 ×; binding to antibodies in human MG serum samples ([5]; FIG. 11, listed as SEQ ID NO:27): a fraction of Abs in MG patient sera; binding to antibodies in human MG serum samples ([5]; FIG. 11, listed as quadruple mutant peptide): able to bind antibodies in all of our human MG serum samples; mAb 35 binding compared to the Torpedo 39 MIR (mAb 35 [6]): 1.70 ×
4 | SEHETRLVANLFGGGSLKWNPDDYGGVKKIHGSLDYTGH (synthetic main immunogenic region (MIR) peptide) [K10N/Q111D, Human 39MIR double mutant (K10N/Q111D)] | 1.19 | restored binding | 1.07 fold-change | restored binding | restored binding |  | 2.31 fold-change | 
5 | SEHETRLVANLLGGGSLRWNPADYGGIKKIRGSLDYTGK [Torpedo 39MIR] | 1.00 | binds; also recorded: able to bind | 1.00 fold-change |  |  | did not bind any antibodies | 1.00 fold-change | Kd (mAb 132A [7]): 0.21 nM; mAb 198, fold-change in binding relative to Torpedo 39MIR (mAb 198 [1]; [13]): 1.00 fold-change; mAb 198, fold-change in binding relative to Torpedo 39MIR (mAb 198 [1]; [12]): 1.00 fold-change; mAb 198 binding to the Torpedo mimic versus the human MIR mimic (mAb 198 [1]; Western blot FIG. 3, more strongly than to the human MIR mimic): about 50 times; mAb 334, fold-change in binding relative to Torpedo 39MIR (mAb 334): 1.00 fold-change; mAb 132A, fold-change in binding relative to Torpedo 39MIR (mAb 132A [2]; [12]): 1.00 fold-change; adsorption of MIR directed Abs in EAMG sera that block the binding of biotinylated mAb 132A to the Torpedo AChR [8]: able to adsorb all of the MIR directed Abs in EAMG sera; mAb 132A, fold-change in binding relative to Torpedo 39MIR (mAb 132A [3]; [13]): 1.00 fold-change; mAb 35, fold-change in binding relative to Torpedo 39MIR (mAb 35 [4]; [13]): 1.00 fold-change; mAb 35, fold-change in binding relative to Torpedo 39MIR (mAb 35 [6]; [12]): 1.00 fold-change
6 | SEHETRLVANLFGGGSLKWNPDDYGGIKKIHGSLQYTGH (synthetic main immunogenic region (MIR) peptide) [K10N/V75I, Human 39MIR double mutant (K10N/V75I)] | 1.79 | restored binding | 1.25 fold-change | restored binding | restored binding |  | 1.10 fold-change | 
7 | SEHETRLVAKLFGGGSLKWNPDDYGGIKKIHGSLDYTGH (synthetic main immunogenic region (MIR) peptide) [V75I/Q111D, Human MIR double mutant (V75I/Q111D)] | 2.71 | restored binding | 3.34 fold-change | restored binding | restored binding |  | 0.92 fold-change | 
8 | Torpedo peptide-Fc conjugate: Torpedo 39MIR peptide (SEQ ID NO:9) conjugated to a human IgG antibody Fc domain plus hinge (SEHETRLVANLLGGGSLRWNPADYGGIKKIRGSLDYTGK; also: conjugated to human IgG Fc with hinge) |  |  |  |  |  |  |  | binding of mAb 132A to peptide-Fc conjugate (mAb 132A [9]): did not bind; binding of mAb 198 to peptide-Fc conjugate (mAb 198 [10]): did not bind
